In PubChem BioAssay (NCI):
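How tested: cells in 96-well plates exposed to compound for 48 hours at five concentrations. At the GI50, growth is halved. TGI: concentration producing complete growth inhibition.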

Experiments:
Assay in all cases: growth of human tumour cells (NCI), 48 h
[1] = tested on: U251 CNS
[2] = tested on: LOX IMVI melanoma
[3] = tested on: OVCAR-4 ovarian
[4] = tested on: UACC-257 melanoma
[5] = tested on: MCF7 breast
[6] = tested on: HOP-62 NSCLC
[7] = tested on: SNB-75 CNS
[8] = tested on: SF-539 CNS
[9] = tested on: HS 578T breast
[10] = tested on: HCT-116 colon

SMILES: COc1cccc(-c2cc(-c3ccc(Nc4nc(Nc5ccc(Cl)cc5)nc(Nc5ccc(Cl)cc5)n4)cc3)nc(N)c2C#N)c1
- GI50 [1]: 3.76 µM
- TGI [1]: > 37.5 µM
- GI50 [2]: 2.22 µM
- TGI [2]: 6.44 µM
- GI50 [3]: 4.09 µM
- TGI [3]: > 100 µM
- GI50 [4]: 2.03 µM
- TGI [4]: 4.8 µM
- TGI [5]: 5.84 µM
- GI50 [6]: 21.1 µM
- TGI [6]: 44.6 µM
- GI50 [7]: 9.75 µM
- TGI [7]: 24.6 µM
- GI50 [8]: 1.69 µM
- TGI [8]: 4.1 µM
- GI50 [9]: 2.66 µM
- TGI [9]: 11.2 µM
- GI50 [10]: 1.6 µM
- TGI [10]: 3.53 µM

SMILES: N=C(N)c1ccc(-c2ccc(-c3cccs3)s2)cc1F
- GI50 [1]: 1.33 µM
- TGI [1]: 2.8 µM
- GI50 [2]: 1.21 µM
- TGI [2]: 2.67 µM
- GI50 [3]: 1.54 µM
- TGI [3]: 3.85 µM
- GI50 [4]: 1.77 µM
- TGI [4]: 3.43 µM
- GI50 [5]: 0.5 µM
- TGI [5]: 2.26 µM
- GI50 [6]: 1.61 µM
- TGI [6]: 3.07 µM
- GI50 [7]: 1.34 µM
- TGI [7]: 2.66 µM
- GI50 [8]: 1.35 µM
- TGI [8]: 3.38 µM
- GI50 [9]: 1.8 µM
- TGI [9]: 4.49 µM
- GI50 [10]: 0.922 µM
- TGI [10]: 2.37 µM

SMILES: COc1ncc(-c2ccc3nc(N)n(-c4ccccc4C(F)(F)F)c(=O)c3c2)cc1S(=O)(=O)Nc1ccc(F)cc1F
- GI50 [1]: 0.953 µM
- TGI [1]: 15.3 µM
- GI50 [2]: 0.224 µM
- TGI [2]: 0.761 µM
- GI50 [3]: 3.64 µM
- TGI [3]: > 100 µM
- GI50 [4]: 7.81 µM
- TGI [4]: 24.5 µM
- GI50 [5]: 2.05 µM
- TGI [5]: 29.4 µM
- GI50 [6]: 0.526 µM
- TGI [6]: > 100 µM
- GI50 [7]: 0.866 µM
- TGI [7]: > 100 µM
- GI50 [8]: 1.22 µM
- TGI [8]: 20.4 µM
- GI50 [9]: 1.3 µM
- TGI [9]: 84.4 µM
- GI50 [10]: 1.7 µM
- TGI [10]: 15.9 µM

SMILES: CC1(C)N=C(N)N=C(N)N1c1cccc(CC(=O)Nc2ccccc2)c1
- GI50 [1]: 4.96 µM
- TGI [1]: > 100 µM
- GI50 [2]: 4.41 µM
- TGI [2]: > 100 µM
- GI50 [3]: 81.8 µM
- TGI [3]: > 100 µM
- GI50 [4]: > 100 µM
- TGI [4]: > 100 µM
- GI50 [5]: 7.56 µM
- TGI [5]: > 100 µM
- GI50 [6]: 53.4 µM
- TGI [6]: > 100 µM
- GI50 [7]: 15.4 µM
- TGI [7]: > 100 µM
- GI50 [8]: 10.5 µM
- TGI [8]: > 100 µM
- GI50 [9]: 11.5 µM
- TGI [9]: 73.2 µM
- GI50 [10]: 4.28 µM
- TGI [10]: > 100 µM

SMILES: Cc1ccc(CNc2ccc(Cl)cc2NCc2ccc(C)c(O)c2)cc1O
- GI50 [1]: 7.15 µM
- TGI [1]: 14.2 µM
- GI50 [2]: 6.93 µM
- TGI [2]: 13.5 µM
- GI50 [3]: 6.63 µM
- TGI [3]: 14.4 µM
- GI50 [4]: 8.12 µM
- TGI [4]: 15.6 µM
- GI50 [5]: 6.18 µM
- TGI [5]: 14.3 µM
- GI50 [6]: 8.85 µM
- TGI [6]: 16.8 µM
- GI50 [7]: 5.47 µM
- TGI [7]: 12.1 µM
- GI50 [8]: 7.31 µM
- TGI [8]: 14.4 µM
- GI50 [9]: 7.73 µM
- TGI [9]: 24.6 µM
- GI50 [10]: 7.78 µM
- TGI [10]: 14.6 µM

SMILES: CC1(C)CC[C@]2(C(=O)O)CC[C@]3(C)C(=CC[C@@H]4[C@@]5(C)C/C(=C/c6cccnc6)[C@H](O)C(C)(C)[C@@H]5CC[C@]43C)[C@@H]2C1
- GI50 [1]: 5.59 µM
- TGI [1]: 32.7 µM
- GI50 [2]: 8.28 µM
- TGI [2]: 24.2 µM
- GI50 [3]: 40 µM
- TGI [3]: > 100 µM
- GI50 [4]: 24.9 µM
- TGI [4]: 92.8 µM
- GI50 [5]: 5.25 µM
- TGI [5]: > 100 µM
- GI50 [6]: 13 µM
- TGI [6]: > 100 µM
- GI50 [7]: 38.6 µM
- TGI [7]: > 100 µM
- GI50 [8]: 5.54 µM
- TGI [8]: 24 µM
- GI50 [9]: 21.8 µM
- TGI [9]: > 100 µM
- GI50 [10]: 5.12 µM
- TGI [10]: 22.4 µM

SMILES: CNC(=S)N/N=C/CSC/C=N/NC(=S)NC
- GI50 [1]: > 100 µM
- TGI [1]: > 100 µM
- GI50 [2]: > 60.7 µM
- TGI [2]: > 100 µM
- TGI [3]: > 100 µM
- GI50 [4]: > 100 µM
- TGI [4]: > 100 µM
- GI50 [5]: 1.85 µM
- TGI [5]: > 100 µM
- GI50 [6]: > 100 µM
- TGI [6]: > 100 µM
- GI50 [7]: > 100 µM
- TGI [7]: > 100 µM
- GI50 [8]: > 100 µM
- TGI [8]: > 100 µM
- GI50 [9]: > 100 µM
- TGI [9]: > 100 µM
- GI50 [10]: 8.33 µM
- TGI [10]: > 100 µM

SMILES: CCCN1CCCC(c2ccc(Nc3nc(Nc4cc(F)ccc4C(N)=O)c4cc[nH]c4n3)c(OC)c2)C1 (stereo not drawn)
- GI50 [1]: 2.57 µM
- TGI [1]: 5.58 µM
- GI50 [2]: 0.588 µM
- TGI [2]: 5.49 µM
- GI50 [3]: 3.03 µM
- TGI [3]: 6.13 µM
- GI50 [4]: 0.188 µM
- TGI [4]: 4.54 µM
- GI50 [5]: 0.0137 µM
- TGI [5]: 3.58 µM
- GI50 [6]: 2.62 µM
- TGI [6]: 5.58 µM
- GI50 [7]: 3.14 µM
- TGI [7]: 6.43 µM
- GI50 [8]: 2.14 µM
- TGI [8]: 6.05 µM
- GI50 [9]: 3.41 µM
- TGI [9]: 12.3 µM
- GI50 [10]: 0.21 µM
- TGI [10]: 4.38 µM

SMILES: CC/C(=C\c1ccc(N(C)C)cc1)c1ccncc1
- GI50 [1]: 4.82 µM
- TGI [1]: 48.7 µM
- GI50 [2]: 4.05 µM
- TGI [2]: > 100 µM
- GI50 [3]: 8.67 µM
- TGI [3]: > 100 µM
- GI50 [4]: 11.6 µM
- TGI [4]: > 100 µM
- GI50 [5]: 9.31 µM
- TGI [5]: > 100 µM
- GI50 [6]: 4.33 µM
- TGI [6]: 33.7 µM
- GI50 [7]: 6.88 µM
- TGI [7]: 47.7 µM
- GI50 [8]: 7.35 µM
- TGI [8]: 74.6 µM
- GI50 [9]: 4.13 µM
- TGI [9]: 67.2 µM
- GI50 [10]: 3.89 µM
- TGI [10]: > 100 µM

SMILES: COc1cc2nc(NC3CCC3)nc(NC3CCN(C(C)C)CC3)c2cc1OC
- GI50 [1]: 1.95 µM
- TGI [1]: 4.52 µM
- GI50 [2]: 1.72 µM
- TGI [2]: 3.23 µM
- GI50 [3]: 3.25 µM
- TGI [3]: 20.9 µM
- GI50 [4]: 1.89 µM
- TGI [4]: 3.78 µM
- GI50 [5]: 2.96 µM
- TGI [5]: 13 µM
- GI50 [6]: 2.6 µM
- TGI [6]: 11 µM
- GI50 [7]: 1.41 µM
- TGI [7]: 4.4 µM
- GI50 [8]: 1.81 µM
- TGI [8]: 3.36 µM
- GI50 [9]: 2.08 µM
- TGI [9]: 5.45 µM
- GI50 [10]: 1.78 µM
- TGI [10]: 4.39 µM

SMILES: Cc1ccccc1C1N=C2Oc3ccccc3C=C2C(=O)N1 (stereo not drawn)
- GI50 [1]: 11.7 µM
- TGI [1]: > 100 µM
- GI50 [2]: 30.5 µM
- TGI [2]: > 100 µM
- GI50 [3]: 11.8 µM
- TGI [3]: > 100 µM
- GI50 [4]: > 100 µM
- TGI [4]: > 100 µM
- GI50 [5]: 0.793 µM
- TGI [5]: > 100 µM
- GI50 [6]: 3.39 µM
- TGI [6]: > 100 µM
- GI50 [7]: 1.51 µM
- TGI [7]: > 100 µM
- GI50 [8]: 1.75 µM
- TGI [8]: 6.88 µM
- GI50 [9]: 2.82 µM
- TGI [9]: > 100 µM
- GI50 [10]: 6.37 µM
- TGI [10]: > 100 µM

SMILES: CC(C)OC(=O)OCOP(=O)(OCOC(=O)OC(C)C)C1CCCN(O)C1=O (stereo not drawn)
- GI50 [1]: 1.76 µM
- TGI [1]: > 100 µM
- GI50 [2]: 2.3 µM
- TGI [2]: > 100 µM
- GI50 [3]: 2.32 µM
- TGI [3]: > 100 µM
- GI50 [4]: 49.1 µM
- TGI [4]: > 100 µM
- GI50 [5]: 1.52 µM
- TGI [5]: > 100 µM
- GI50 [6]: 2.12 µM
- TGI [6]: > 100 µM
- GI50 [7]: 5.46 µM
- TGI [7]: > 100 µM
- GI50 [8]: 5.79 µM
- TGI [8]: > 100 µM
- GI50 [9]: 0.586 µM
- TGI [9]: 6.56 µM
- GI50 [10]: 0.711 µM
- TGI [10]: > 100 µM
